Source: patent US5399487A, “6-peptidylamino-1-naphthalenesulfonamides useful as fluorogenic proteolytic enzyme substrates” (Haematologic Technologies, Inc., priority 1993, dated 1995)

Tests used:
Assay type in all cases: biochemical
thrombin (IIa) = target: T1, thrombin (IIa) (Homo sapiens, UniProt P00734); assay: Fluorogenic enzyme assay (Example 5); details: for Km / kcat /Km, IIa / kcat, IIa: Table 7; for Time (min) for 10% hydrolysis, IIa: enzyme 100 nM
T1 construct: 0.5 nM human thrombin (IIa)
Protocol: (§1) Enzyme assays (except factor VIIa assays, see below) were conducted in 20 mM Tris, 150 mM NaCl, pH 7.4 (TBS) at room temperature (22° C.). The final volume for all reaction mixtures was 2.0 ml. Fluorogenic substrates were dissolved in DMSO to a stock concentration of 10 mM. The 10 mM stock solution was diluted in TBS to the final working concentration prior to all assays. Enzyme was added to mixtures containing buffer components and substrate and the initial rate of substrate hydrolysis was measured as the change in fluorescent intensity over time, corresponding to the generation of the particular 6-amino-1-naphthalenesulfonamide fluorophore from the provided substrate. Quantitation of substrate hydrolysis was accomplished by establishing a standard curve from the appropriate fluorescent moiety. Fluorescence was monitored (continuously or discontinuously) using a Perkin Elmer fluorescence spectrophotometer, model MPF-44A, equipped with a standard chart recorder. The fluorophore was detected using monochrometers set at an excitation wavelength of 352 nm and an emission wavelength of 470 nm. Light scattering artifacts were minimized using a 399 nm cut off filter in the emission light beam.
(§2) The kinetic constants of substrate hydrolysis were determined using the non-linear least squares regression analysis program ENZFITTER (Cambridge, UK). This program was used to iteratively fit initial rates of substrate hydrolysis to the Michaelis-Menten equation and the kinetic constants of substrate hydrolysis (Km) and (kcat) were calculated.

factor Xa = factor Xa (Homo sapiens, UniProt P00742); assay: Fluorogenic enzyme assay (Example 5); details: for Km / kcat /Km, Xa / kcat, Xa: Table 7; for Time (min) for 10% hydrolysis, Xa: enzyme 100 nM
Protocol: as §1, §2

[1] = target: activated protein C (APC) (Homo sapiens, UniProt P04070); assay: Fluorogenic enzyme assay (Example 5); details: for Km / kcat /Km, APC / kcat, APC: Table 7; for Time (min) for 10% hydrolysis, APC: enzyme 100 nM
Protocol: as §1, §2

plasmin (Plm) = plasmin (Plm) (Homo sapiens, UniProt P00747); assay: Fluorogenic enzyme assay (Example 5); details: substrate 1 μM; for Time (min) for 5% hydrolysis, Plm: footnote b
Protocol: as §1, §2

[2] = target: tissue plasminogen activator (t-PA) (Homo sapiens, UniProt P00750); assay: Fluorogenic enzyme assay (Example 5); details: substrate 1 μM; for hydrolysis, t-PA (symbol N.D.): after 24 hrs, enzyme 100 nM
Protocol: as §1, §2

urokinase (u-PA) = urokinase (u-PA) (Homo sapiens, UniProt P00749); assay: Fluorogenic enzyme assay (Example 5); details: substrate 1 μM
Protocol: as §1, §2

factor VIIa = target: T2, factor VIIa (Homo sapiens, UniProt P08709); assay: Fluorogenic enzyme assay, relative hydrolysis rates (Table 8); details: at 100 hours; 10 nM enzyme, substrate 1 μM
T2 construct: directly measure the enzymatic activity of factor VIIa in the presence and absence of tissue factor and phospholipid
T2 sequence (P08709 213-466 limits assumed): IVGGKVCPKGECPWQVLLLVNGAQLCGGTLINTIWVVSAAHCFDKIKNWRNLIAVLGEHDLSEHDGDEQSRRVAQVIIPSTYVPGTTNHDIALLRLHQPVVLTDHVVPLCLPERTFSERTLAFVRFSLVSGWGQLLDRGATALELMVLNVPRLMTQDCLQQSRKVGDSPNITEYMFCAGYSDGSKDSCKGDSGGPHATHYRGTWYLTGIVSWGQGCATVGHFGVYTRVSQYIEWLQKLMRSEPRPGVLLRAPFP
T2 sequence (P08709 61-212 limits assumed): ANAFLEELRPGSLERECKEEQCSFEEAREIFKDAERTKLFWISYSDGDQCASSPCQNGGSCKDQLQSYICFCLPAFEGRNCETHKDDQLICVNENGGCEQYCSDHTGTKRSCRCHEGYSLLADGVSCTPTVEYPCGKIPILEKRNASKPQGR
Protocol: as §1
Factor VII assays were conducted in 20 mM HEPES, 150 mM NaCl, 5 mM CaCl2, pH 7.4 (HBS) at 37° C. The final volume for all reactions was 1.6 ml. 6-(Mes-D-Leu-Gly-Arg)amino-1-(N,N-diethyl)naphthalenesulfonamide was dissolved in DMSO to a stock concentration of 10 mM. This 10 mM stock solution of was diluted in HBS to final working concentration prior to all assays. For reactions involving tissue factor (TF) and phospholipid vesicles, recombinant human tissue factor was solubilized in either 0.04% n-dodecyl octaethylene glycol (C12 E8) or 0.8% octyl glucoside. The TF/n-dodecyl octaethylene glycol was then relipidated into PCPS or PC vesicles by a 30 minute incubation step as described by Lawson & Mann, J. Biol. Chem. 266: 11317-11327 (1991). TF/octyl glucoside was relipidated into PC or PCPS vesicles by a thirty minute incubation step followed by exhaustive dialysis. The final concentration of tissue factor used in the studies described here ranged from 2 to 50 nM depending on the nature of the experiment.
Fifteen minutes prior to the start of all reactions factor VIIa was added to the reaction system. This incubation period was followed by the addition of substrate (1 μM to 400 μM) to the mixture to start the reaction. In experiments designed to determine kinetic constants of substrate hydrolysis, 50 nM rVIIa was used when no tissue factor was present in the reaction system, while 0.5 nM rVIIa was used when tissue factor was present in the reaction system. The rate of substrate hydrolysis was measured by change in fluorescence over time, which corresponded with the generation of the 6-amino-1-(N,N-diethyl)naphthalenesulfonamide from the provided substrate. The kinetic constants of 6-(Mes-D-Leu-Gly-Arg)amino-1-(N,N-diethyl)naphthalenesulfonamide hydrolysis as a function of factor VIIa/tissue factor complex assembly are shown in Table 10.

factor IXa = factor IXa (Homo sapiens, UniProt P00740); assay: Fluorogenic enzyme assay (Example 5); details: at 100 hours; 100 nM enzyme, substrate 1 μM
Protocol: as §1, §2

[3] = 100 nM enzyme (footnote b), substrate 1 μM

Chain of activated protein C (APC) (P04070 212-461 limits assumed): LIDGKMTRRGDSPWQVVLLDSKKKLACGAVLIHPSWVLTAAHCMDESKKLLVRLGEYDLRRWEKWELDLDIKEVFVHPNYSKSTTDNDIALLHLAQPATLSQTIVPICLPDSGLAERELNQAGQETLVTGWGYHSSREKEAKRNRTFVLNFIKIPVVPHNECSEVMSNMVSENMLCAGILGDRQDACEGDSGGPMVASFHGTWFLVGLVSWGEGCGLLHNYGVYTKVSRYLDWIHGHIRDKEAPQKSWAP
Chain of activated protein C (APC) (P04070 43-197 limits assumed): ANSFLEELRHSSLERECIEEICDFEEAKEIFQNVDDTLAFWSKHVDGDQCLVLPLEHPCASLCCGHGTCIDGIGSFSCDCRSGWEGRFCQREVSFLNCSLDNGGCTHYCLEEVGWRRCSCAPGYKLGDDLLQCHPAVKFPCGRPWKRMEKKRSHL
Chain of plasmin (Plm) (P00747 581-810 limits assumed, species assumed): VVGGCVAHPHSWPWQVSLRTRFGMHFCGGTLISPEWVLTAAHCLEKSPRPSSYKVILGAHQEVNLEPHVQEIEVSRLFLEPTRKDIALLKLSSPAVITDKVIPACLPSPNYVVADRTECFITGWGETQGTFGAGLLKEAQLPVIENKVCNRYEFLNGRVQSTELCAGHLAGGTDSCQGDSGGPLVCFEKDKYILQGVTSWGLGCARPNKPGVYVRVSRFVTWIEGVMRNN
Chain of plasmin (Plm) (P00747 97-580 limits assumed, species assumed): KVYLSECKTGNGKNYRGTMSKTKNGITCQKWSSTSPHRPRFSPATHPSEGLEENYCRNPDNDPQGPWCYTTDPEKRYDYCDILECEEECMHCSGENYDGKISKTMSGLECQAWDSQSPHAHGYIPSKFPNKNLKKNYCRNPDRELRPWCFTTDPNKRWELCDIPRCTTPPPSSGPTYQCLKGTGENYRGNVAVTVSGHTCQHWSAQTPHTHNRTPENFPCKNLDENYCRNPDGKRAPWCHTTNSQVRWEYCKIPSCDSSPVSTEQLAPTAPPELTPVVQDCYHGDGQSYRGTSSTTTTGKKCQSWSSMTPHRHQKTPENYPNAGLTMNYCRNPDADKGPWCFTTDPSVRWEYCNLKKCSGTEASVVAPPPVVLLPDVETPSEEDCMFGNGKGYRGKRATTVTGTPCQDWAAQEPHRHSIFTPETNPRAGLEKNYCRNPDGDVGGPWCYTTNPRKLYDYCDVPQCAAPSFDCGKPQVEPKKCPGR
Chain of tissue plasminogen activator (t-PA) (P00750 36-562, species assumed): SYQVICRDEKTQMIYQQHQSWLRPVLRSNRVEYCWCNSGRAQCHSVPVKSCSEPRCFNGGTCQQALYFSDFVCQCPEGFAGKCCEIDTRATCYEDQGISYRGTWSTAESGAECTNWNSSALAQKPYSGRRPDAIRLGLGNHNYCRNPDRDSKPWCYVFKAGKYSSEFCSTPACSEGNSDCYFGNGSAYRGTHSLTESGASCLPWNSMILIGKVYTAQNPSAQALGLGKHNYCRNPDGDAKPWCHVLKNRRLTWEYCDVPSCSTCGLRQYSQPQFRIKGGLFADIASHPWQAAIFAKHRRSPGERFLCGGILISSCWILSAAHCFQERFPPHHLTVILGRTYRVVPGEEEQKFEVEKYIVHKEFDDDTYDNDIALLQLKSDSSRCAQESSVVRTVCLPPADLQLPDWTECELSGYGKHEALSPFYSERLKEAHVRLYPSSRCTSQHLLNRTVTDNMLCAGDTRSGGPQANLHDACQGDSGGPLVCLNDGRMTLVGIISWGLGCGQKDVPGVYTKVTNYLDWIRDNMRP
Chain of factor Xa (P00742 235-488 limits assumed): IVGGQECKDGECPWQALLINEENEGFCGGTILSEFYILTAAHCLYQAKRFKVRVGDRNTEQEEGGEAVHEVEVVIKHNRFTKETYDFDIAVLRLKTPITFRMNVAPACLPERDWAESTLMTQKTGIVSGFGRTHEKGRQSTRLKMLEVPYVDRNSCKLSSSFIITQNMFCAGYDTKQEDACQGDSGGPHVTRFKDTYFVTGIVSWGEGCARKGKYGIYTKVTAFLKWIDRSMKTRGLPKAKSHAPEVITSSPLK
Chain of factor Xa (P00742 41-179 limits assumed): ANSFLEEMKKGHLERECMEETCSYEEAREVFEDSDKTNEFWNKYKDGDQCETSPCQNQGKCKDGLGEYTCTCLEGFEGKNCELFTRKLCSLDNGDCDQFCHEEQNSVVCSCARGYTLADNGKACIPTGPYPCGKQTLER
Chain of factor IXa (P00740 227-461 limits assumed): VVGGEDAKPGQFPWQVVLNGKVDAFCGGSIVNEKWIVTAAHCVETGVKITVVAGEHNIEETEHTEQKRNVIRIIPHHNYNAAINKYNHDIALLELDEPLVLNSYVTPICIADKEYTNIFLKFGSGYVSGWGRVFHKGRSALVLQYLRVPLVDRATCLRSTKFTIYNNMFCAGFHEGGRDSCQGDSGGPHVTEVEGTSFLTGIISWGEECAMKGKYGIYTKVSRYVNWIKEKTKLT
Chain of factor IXa (P00740 47-191 limits assumed): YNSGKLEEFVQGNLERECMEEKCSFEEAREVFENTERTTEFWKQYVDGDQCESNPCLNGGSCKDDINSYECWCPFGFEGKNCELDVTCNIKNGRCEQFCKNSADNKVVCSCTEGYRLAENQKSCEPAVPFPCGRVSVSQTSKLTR

Structure (SMILES)	Km (thrombin (IIa)) [µM]	kcat /Km, IIa (thrombin (IIa)) [M⁻¹ s⁻¹]	kcat, IIa (thrombin (IIa)) [s⁻¹]	Time (min) for 10% hydrolysis, IIa (thrombin (IIa); substrate 1 μM) [min]	Km (factor Xa) [µM]	kcat /Km, Xa (factor Xa) [M⁻¹ s⁻¹]	kcat, Xa (factor Xa) [s⁻¹]	Time (min) for 10% hydrolysis, Xa (factor Xa; substrate 1 μM) [min]	Km [1] [µM]	kcat /Km, APC [1] [M⁻¹ s⁻¹]	kcat, APC [1] [s⁻¹]	Time (min) for 10% hydrolysis, APC ([1]; substrate 1 μM) [min]	hydrolysis, t-PA (symbol N.D.) [2]	Time (min) for 5% hydrolysis, Plm (plasmin (Plm); enzyme 100 nM) [min]	Time (min) for 10% hydrolysis, u-PA (urokinase (u-PA); enzyme 100 nM) [min]	further results
CN(C)S(=O)(=O)c1cccc2cc(NC(=O)[C@H](CCCNC(=N)N)NC(=O)[C@H](CCCCNC(=O)OCc3ccccc3)NC(=O)OC(C)(C)C)ccc12 [(N^α -Boc,N^.cndot. -Z)KR-ANSN(CH23)2]																TIME TO 10% HYDROLYSIS (HOURS), IIa (thrombin (IIa); 10 nM enzyme, substrate 1 μM): 18 h; TIME TO 10% HYDROLYSIS (HOURS), Xa (factor Xa; [3]): 24 h; TIME TO 10% HYDROLYSIS (HOURS), APC [1, 3]: 11 h; TIME TO 10% HYDROLYSIS (HOURS), Plm (plasmin (Plm); 100 nM enzyme (footnote b)): 1.5 h; hydrolysis, t-PA (symbol d) ([2]; at 100 hours, 100 nM enzyme): d (hydrolysis at 100 hours was less than 10%.); hydrolysis, u-PA (symbol d) (urokinase (u-PA); at 100 hours, 100 nM enzyme): d (hydrolysis at 100 hours was less than 10%.); hydrolysis, VIIa (symbol d) (factor VIIa): d (hydrolysis at 100 hours was less than 10%.); hydrolysis, IXa (symbol d) (factor IXa): d (hydrolysis at 100 hours was less than 10%.)
Br.N=C(N)NCCC[C@H](NC(=O)OCc1ccccc1)C(=O)Nc1ccc2c(S(=O)(=O)NC3CCCCC3)cccc2c1 [(N^α -Z)ArgANSNR1 R2; H; cyclo-C6 H11]	27.9	1090	0.03	23	51.8	633	0.03	55	810	2470	0.44	12	N.D. (Less than 5% hydrolysis after 24 hrs.)			Time (min) for 10% hydrolysis, Plm (plasmin (Plm); enzyme 100 nM): 1140 min; Time (min) for 5% hydrolysis, u-PA (urokinase (u-PA); footnote b, enzyme 100 nM): 1620 min
Br.CC(C)NS(=O)(=O)c1cccc2cc(NC(=O)[C@H](CCCNC(=N)N)NC(=O)OCc3ccccc3)ccc12 [(N^α -Z)ArgANSNR1 R2; H; i-C3 H7]	25	1180	0.03	34	102	800	0.08	36	343	510	0.17	50	N.D. (Less than 5% hydrolysis after 24 hrs.)	1370	1260	
Br.CC(C)CNS(=O)(=O)c1cccc2cc(NC(=O)[C@H](CCCNC(=N)N)NC(=O)OCc3ccccc3)ccc12 [(N^α -Z)ArgANSNR1 R2; H; i-C4 H9]	35.3	1420	0.05	25	86.5	811	0.07	33	960	1670	1.6	17	N.D. (Less than 5% hydrolysis after 24 hrs.)	1620	200	
